Source: patent US20130023485A1, “PARENTERAL FORMULATIONS OF PEPTIDES FOR THE TREATMENT OF SYSTEMATIC LUPUS ERYTHEMATOSUS” (Teva Pharmaceutical Industries, Ltd., priority 2003, published 2013)

Key:
LN cells [1] = test: IFN-γ secretion by cultured LN cells of immunized and treated mice (ELISA); format: in vivo, BALB/c mice; conditions: for Final cytokine (IFN-γ): treated 200 μg/M s.c.
Procedure: A group of 20 mice were immunized with 50 μg/mouse of Compound 1 RS. The immunized mice were allocated to five treatment groups as follows: placebo, 25, 50, 100 and 200 μg/mouse of Compound 1 DP (subcutaneous administration). Ten days post immunization and treatment, LN was extracted and single cell suspension was prepared. The in-vitro secretion of IFN-γ and TGF-β by the cultured cells in response to activation with several concentrations of Compound 1 RS was then measured. [table] [table] Mice: 20 female BALB/c mice, supplied by Harlan animals breeding center, Rehovot. Age at immunization (week+days): 10 Average weight of mice included in the experiment: 19.01 gr. The immunization was performed by injecting 100 microliters of the immunization emulsion (50 microliters into each hind footpad). […] Mice were sacrificed by cervical dislocation. LN were extracted from the hind legs and were transferred to a sterile petri dish containing about 5 mL RPMI. The cells were extracted by gentle squeezing of the tissue against a 200 micrometer mesh stainless steel net. The cells were collected and centrifuged at 300 G for 10 minutes at RT. Single cell suspensions were prepared from pooled LN of each experimental group. […] Secretion of IFN-γ and TGF-β, as indication of cellular response, were determined by ELISA of culture media (48 hrs for IFN-γ and 72 hrs for TGF-β).

LN cells [2] = test: TGF-β secretion by cultured LN cells of immunized and treated mice (ELISA); format: in vivo, BALB/c mice; conditions: all Compound 1 treatment groups (25-200 μg/mouse)
Procedure: A group of 20 mice were immunized with 50 μg/mouse of Compound 1 RS. The immunized mice were allocated to five treatment groups as follows: placebo, 25, 50, 100 and 200 μg/mouse of Compound 1 DP (subcutaneous administration). Ten days post immunization and treatment, LN was extracted and single cell suspension was prepared. The in-vitro secretion of IFN-γ and TGF-β by the cultured cells in response to activation with several concentrations of Compound 1 RS was then measured. [table] […] Secretion of IFN-γ and TGF-β, as indication of cellular response, were determined by ELISA of culture media (48 hrs for IFN-γ and 72 hrs for TGF-β).

(NZB×NZW)F1 female mice = test: Lupus symptoms in SLE-prone (NZB×NZW)F1 female mice; format: in vivo, mouse
Procedure: The same batch of drug substance was used in this study and in the first Phase I clinical trial with Compound 1. The mice were followed for anti-dsDNA antibodies and for proteinuria. When the mice were sacrificed, the intensity of ICD was determined in kidneys.

SLE subjects = test: Phase Ia clinical study, single s.c. dose, tolerability and safety; format: in vivo, human
Procedure: Thirty-six (36) subjects participated in the study. To be eligible for inclusion in the study, SLE patients must have fulfilled at least four criteria used for the diagnosis of lupus by the American College of Rheumatology. Patients must also have had stable, mild/moderate disease and score less than or equal to 10 on the SLE Disease Activity Index, SLEDAI. […] A standard battery of safety tests, including blood and urine collection for laboratory tests, was performed at screening, during the day of dosing, at 24 hours post-dose and at 2, 4 and 8 weeks following dosing. Prior to dosing, and on scheduled follow-up visits, blood samples were withdrawn for SLE-related immunological tests, anti-Compound 1 antibodies and PBL proliferation assay. […] The following safety parameters were assessed at Screening, during the hospitalization and at follow-up visits including Termination visit: vital signs (systolic blood pressure, diastolic blood pressure, pulse, oxygen saturation, temperature and weight), 12-lead ECG, change in physical examination and clinical routine laboratory safety tests. Adverse events were recorded at the Dosing Day and at each visit thereafter. SLE-related immunological tests were performed at Screening, during the hospitalization and at follow-up visits including Termination visit. […] Disease activity assessment using the SLE disease activity index score, year 2000 updated (SLEDAI 2K) was assessed at Screening, during the hospitalization and at follow-up visits including Termination visit.

[3] = system: PBL of SLE patients stimulated with phytohemagglutinin (PHA); test: Proliferation of PBL stimulated with mitogen PHA; format: cell-based, human; conditions: PHA 2 μg/ml; PBL of one SLE patient, FIG. 9
Procedure: To this end the peptides hCDR1 or hCDR3 were added to cultures of PBL of SLE patients that were stimulated with the mitogen phytohemagglutinin (PHA, 2 μg/ml).

[4] = single s.c. 0.5, 1 or 2.5 mg in Captisol®

## H-GYYWSWIRQPPGKGEEWIG-OH [Compound 1]
LN cells [1]; 2.5 million cells/well, activation Compound 1 6.25 μg/ml
  Final cytokine (IFN-γ): 126.1 pg/mL
LN cells [1]; 2.5 million cells/well, activation Compound 1 12.5 μg/ml
  Final cytokine (IFN-γ): 129.0 pg/mL
LN cells [1]; 2.5 million cells/well, activation Compound 1 50 μg/ml
  Final cytokine (IFN-γ): 378.1 pg/mL
LN cells [1]; 2.5 million cells/well, activation Compound 1 100 μg/ml
  Final cytokine (IFN-γ): 524.1 pg/mL
LN cells [1]; 2.5 million cells/well, activation Compound 1 25 μ/ml
  Final cytokine (IFN-γ): 240.3 pg/mL
LN cells [1]; 2.5 million cells/well, activation Con A
  Final cytokine (IFN-γ): BQL
LN cells [1]; 5 million cells/well, activation Compound 1 3.125 μg/ml
  Final cytokine (IFN-γ): 204.4 pg/mL
LN cells [1]; 5 million cells/well, activation Compound 1 6.25 μg/ml
  Final cytokine (IFN-γ): 244.1 pg/mL
LN cells [1]; 5 million cells/well, activation Compound 1 12.5 μg/ml
  Final cytokine (IFN-γ): 466.1 pg/mL
LN cells [1]; 5 million cells/well, activation Compound 1 50 μg/ml
  Final cytokine (IFN-γ): 922.5 pg/mL
LN cells [1]; 5 million cells/well, activation Compound 1 100 μg/ml
  Final cytokine (IFN-γ): 1006.2 pg/mL
LN cells [1]; 5 million cells/well, activation Compound 1 25 μ/ml
  Final cytokine (IFN-γ): 660.5 pg/mL
LN cells [1]; 5 million cells/well, activation Con A
  Final cytokine (IFN-γ): 7722.8 pg/mL
LN cells [1]; treated dose of 25 μg/mouse
  average inhibition of IFN-γ secretion: 95%
LN cells [2]
  TGF-β secreted level: below the detection limit
(NZB×NZW)F1 female mice; 25 μg/mouse s.c. once a week in Captisol®, 5 weeks following treatment initiation
  Mean Proteinuria ± SEM: 0.16 ± 0.05 g/L
(NZB×NZW)F1 female mice; 25 μg/mouse s.c. once a week in Captisol®, 7 weeks following treatment initiation
  Mean Proteinuria ± SEM: 1.26 ± 1.09 g/L
(NZB×NZW)F1 female mice; 25 μg/mouse s.c. once a week in Captisol®, 8 weeks following treatment initiation
  Mean Proteinuria ± SEM: 0.5 ± 0.31 g/L
(NZB×NZW)F1 female mice; 25 μg/mouse s.c. once a week in Captisol®, 10 weeks following treatment initiation
  Mean Proteinuria ± SEM: 0.56 ± 0.3 g/L
(NZB×NZW)F1 female mice; 50 μg/mouse s.c. once a week in Captisol®, 5 weeks following treatment initiation
  Mean Proteinuria ± SEM: 0.75 ± 0.3 g/L
(NZB×NZW)F1 female mice; 50 μg/mouse s.c. once a week in Captisol®, 7 weeks following treatment initiation
  Mean Proteinuria ± SEM: 0.81 ± 0.3 g/L
(NZB×NZW)F1 female mice; 50 μg/mouse s.c. once a week in Captisol®, 8 weeks following treatment initiation
  Mean Proteinuria ± SEM: 1.09 ± 0.4 g/L
(NZB×NZW)F1 female mice; 50 μg/mouse s.c. once a week in Captisol®, 10 weeks following treatment initiation
  Mean Proteinuria ± SEM: 1.29 ± 0.3 g/L
(NZB×NZW)F1 female mice; 50 μg/mouse, kidneys at sacrifice, scale 0 = none, 1 = moderate, 2 = severe, 3 = severe/extremely intense
  ICD (Immune Complex Deposits) intensity, Mean ± SEM: 1.90 ± 0.23
(NZB×NZW)F1 female mice; 25 or 50 μg/mouse, after 10 treatment injections
  levels of dsDNA-specific antibodies versus control: no significant differences
(NZB×NZW)F1 female mice; either dose level (25 or 50 μg/mouse), FIG. 6
  intensity of immune complex deposits in kidney sections versus control group: much lower
SLE subjects; [4]
  QTc change from baseline: no QTc change from baseline>60 msec
  categorical ECG measurements and digitized ECG parameters versus placebo: No differences of clinical significance
  hematology, biochemistry or urinalysis values: No clinically significant effect
  incidence of AEs versus placebo: no prominent difference
  physical exam: No clinically significant effects
  serious or severe adverse events: No serious adverse event (SAE) or AE classified as severe occurred
  temperature and weight: No clinically significant effect
  vital signs (systolic, diastolic blood pressure, pulse, oxygen saturation): No clinically significant effect
SLE subjects; single s.c. dose in Captisol®
  immunological response to tetanus toxoid (TTX) recall antigen: did not change
SLE subjects; single s.c. dose of 0.5, 1 or 2.5 mg in 120 mg Captisol®
  safety and tolerability: safe and well tolerated
[3]
  inhibition of proliferative responses to mitogen PHA: could not inhibit
